Laboratory results: patent publication US5071855A, “Pharmacologically active piperidinylimidazopyridine compounds” (Dompe Farmaceutici SpA, priority 1989, dated 1991)
Where a name gives a salt, the structure may show the parent alone.

Legend:
[1] = system: mortality induced by compound 48/80; experiment: Mortality inhibition by compound 48/80; assay type: in vivo, Sprague Dawley Nos male rats; conditions: ip; rat, i.p., 30 minutes before 2 mg/kg i.v. compound 48/80; observed 4 hours
Experimental: MORTALITY INHIBITION BY COMPOUND 48/80
For evaluating the protection of the mortality induced by compound 48/80 administration the method described by C. J. E. Niemegeers et al. (Arch. Int. Pharmacodyn, 234,164,1978) was followed.
Sprague Dawley Nos male rats (Nossan, Correzzana, Milano) weighing 140 to 150 g, divided into groups of 10 animals each, on an empty stomach for 24 hours with water "ad libitum", were kept in cages with a grid floor, and treated intravenously with 2 mg/kg of compound 48/80 (1 ml/rat).
The animals were kept under observation for 4 hours taking note of their mortality. The results were expressed as the number of animals dead with respect to the number of treated animals. Compounds under examination or the carrier were administered 30 minutes before administration of compound 48/80 by intraperitoneal route, dissolved in H2 O (5 ml/kg) or suspended in 0.5% carboxymethylcellulose. The experimental data were submitted to the variance analysis and to subsequent multiple comparisons according to Dunnet (D. J. Finney, in "Statistical Methods in Biological assay", Ed. L. Griffin and Co. Ltd., pag. 152,1957, Edition Ames Iowa, 1971).

[2] = system: mortality induced by histamine; experiment: Effect on the mortality induced by histamine; assay type: in vivo, male albino guinea pigs (Dunkin-Hartley); conditions: Cavia porcellus, po; guinea pig, p.o., 60 minutes before 1.25 mg/kg i.v. histamine dihydrochloride; 50% inhibition of mortality; read-out: Mortality induced by hystamine ED50 p.o.
Experimental: EFFECT ON THE MORTALITY INDUCED BY HISTAMINE
The method described by Romer D. et al. (Med. Welt. 17,791,1966) was followed and the tests were carried out on male albino guinea pigs (Dunkin-Hartley), weighing 350 to 450 g which were kept in cages with a grid floor, on an empty stomach for 24 hours with water ad libitum. The compounds under examination have been orally administered to the animals, dissolved in 0.5% carboxymethylcellulose, 60 minutes before intravenous administration of 1.25 mg/kg of histamine dihydrochloride in saline solution. In the control animals, treated with carboxymethylcellulose, the intravenous administration of histamine dihydrochloride induced a 100% mortality.
It has been evaluated ED50, which corresponds to the amount of the compound able inhibit to 50% the mortality induced by histamine: estimation of ED50 has been made applying the `probit` method (Finney D. J. "Statistical method in biological assay", pg 512,1957).

[3] = Evaluation of the lethal dose50 (LD50), acute toxicity; conditions: in vivo, ip; mouse, 14 days; probit method
Experimental: EVALUATION OF THE LETHAL DOSE50 (LD50)
Swiss Nos (Nossau, Correzzana, Milano) mice, weighing 18 to 20 g each, on an empty stomach for 18 hours with water "ad libitum" and kept in cages with grid floor, were used. The animals, divided into groups of 10 animals each, (5M+5F) were treated intraperitoneally (10 ml/kg) with the compounds under examination dissolved in water or suspended in 0.5% carboxymethyl-cellulose. The animals were kept in the cages and the mortality occurred within the following 6 hours was noted down. At the expiring of the 6 hours the animals were allowed to eat up to the end of the experimentation which lasted 14 days. During this period all the toxic symptoms and the mortality occuring were noted.
The animals which died during the test period and those which were sacrificed at the end of the same, underwent autopsy for a macroscopic examination of their main organs. The experimental data were statistically compared with the X^2 method and LD50 was extrapolated by the `probit` method.

Structure (SMILES) | ED50 [1] [mg/kg] | ED50 [2] [mg/kg] | LD50 at 336 h [3] [mg/kg]
CC(C)(C)c1ccc(C(O)CCCN2CCC(C(O)(c3ccccc3)c3ccccc3)CC2)cc1 (stereo not drawn) [Terfenadine, reference compound] | 1.99 | – | –
CN1CCCC(c2nc3cccnc3n2Cc2ccccc2)C1 (stereo not drawn) [Example 8, 3-Benzyl-2-(1-methylpiperidin-3-yl)-3H-imidazo [4,5-b] pyridine] | – | 0.078 | > 100
CCOCCn1c(C2CCCN(C)C2)nc2cccnc21.O=C(O)/C=C/C(=O)O.O=C(O)/C=C/C(=O)O (stereo not drawn) [Example 5, 3-(2-Ethoxyethyl)-2-(1-methylpiperidin-3-yl)-3H-imidazo [4,5-b] pyridine difumarate] | 0.59 | 0.05 | < 100
CCOCCn1c(C2CCN(C)CC2)nc2cccnc21 [Example 2, 3-(2-Ethoxyethyl)-2-(1-methylpiperidin-4-yl)-3H-imidazo [4,5-b] pyridine 1.5 fumarate] | 0.34 | 0.042 | 500
